Reference: ChEMBL document CHEMBL5291721, “A preclinical secondary pharmacology resource illuminates target-adverse drug reaction associations of marketed drugs” (Nat Commun, 2023)
Values joined by “and” are separate entries in the source; they are usually repeats but may differ in a detail not shown here. Equal entries are not always repeated.

Legend:
[1] = biological target: T1, Muscarinic acetylcholine receptor M2 (Homo sapiens, UniProt P08172); type: functional, cell-based
T1 sequence (P08172 whole entry): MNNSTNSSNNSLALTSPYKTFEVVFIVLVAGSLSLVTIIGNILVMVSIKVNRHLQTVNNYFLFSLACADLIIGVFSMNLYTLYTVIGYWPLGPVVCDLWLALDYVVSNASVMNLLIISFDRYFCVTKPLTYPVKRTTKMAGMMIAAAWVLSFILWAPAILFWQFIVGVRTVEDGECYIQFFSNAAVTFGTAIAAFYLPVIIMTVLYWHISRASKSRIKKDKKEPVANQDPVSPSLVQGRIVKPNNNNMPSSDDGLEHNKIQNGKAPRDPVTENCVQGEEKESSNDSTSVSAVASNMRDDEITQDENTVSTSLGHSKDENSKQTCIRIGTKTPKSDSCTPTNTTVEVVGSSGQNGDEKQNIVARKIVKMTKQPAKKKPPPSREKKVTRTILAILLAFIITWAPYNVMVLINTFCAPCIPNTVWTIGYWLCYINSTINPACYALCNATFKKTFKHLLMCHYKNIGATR

[2] = biological target: T2, 5-hydroxytryptamine receptor 1A (Homo sapiens, UniProt P08908); type: functional, cell-based
T2 sequence (P08908 whole entry): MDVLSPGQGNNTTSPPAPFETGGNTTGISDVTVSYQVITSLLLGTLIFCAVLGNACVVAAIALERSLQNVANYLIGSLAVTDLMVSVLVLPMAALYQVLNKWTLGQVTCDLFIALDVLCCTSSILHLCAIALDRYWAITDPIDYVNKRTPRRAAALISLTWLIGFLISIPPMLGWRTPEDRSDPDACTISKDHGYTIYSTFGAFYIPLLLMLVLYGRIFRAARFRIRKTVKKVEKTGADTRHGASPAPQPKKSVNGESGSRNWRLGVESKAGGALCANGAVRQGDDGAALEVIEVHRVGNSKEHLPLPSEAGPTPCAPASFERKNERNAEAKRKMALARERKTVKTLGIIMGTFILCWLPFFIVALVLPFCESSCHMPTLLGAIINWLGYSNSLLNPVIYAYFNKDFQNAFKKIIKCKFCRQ

Vasopressin V2 receptor = Vasopressin V2 receptor (Homo sapiens, UniProt P30518)
[3] = biological target: T3, 5-hydroxytryptamine receptor 2B (Homo sapiens, UniProt P41595); type: functional, cell-based
[4] = biological target: T4, Beta-2 adrenergic receptor (Homo sapiens, UniProt P07550)
[5] = biological target: T4, Beta-2 adrenergic receptor; type: functional, cell-based
[6] = biological target: Neuronal acetylcholine receptor subunit alpha-4 (Homo sapiens, UniProt P43681)
[7] = biological target: Gamma-aminobutyric acid receptor subunit alpha-1 (Rattus norvegicus, UniProt P62813)
Motilin receptor = Motilin receptor (Homo sapiens, UniProt O43193)
Melanocortin receptor 3 = Melanocortin receptor 3 (Homo sapiens, UniProt P41968)
[8] = biological target: T5, Type-1 angiotensin II receptor (Homo sapiens, UniProt P30556)
T5 sequence (P30556 whole entry): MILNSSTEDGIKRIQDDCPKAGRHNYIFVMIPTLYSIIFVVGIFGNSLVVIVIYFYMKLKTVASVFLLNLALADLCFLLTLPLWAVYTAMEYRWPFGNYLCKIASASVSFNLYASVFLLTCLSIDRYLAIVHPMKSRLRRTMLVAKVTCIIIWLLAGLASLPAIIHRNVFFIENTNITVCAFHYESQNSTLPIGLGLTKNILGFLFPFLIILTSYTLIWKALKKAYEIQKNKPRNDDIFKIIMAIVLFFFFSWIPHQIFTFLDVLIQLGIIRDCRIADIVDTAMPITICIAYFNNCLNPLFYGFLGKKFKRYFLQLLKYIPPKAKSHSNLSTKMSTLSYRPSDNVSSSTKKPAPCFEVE

[9] = biological target: Beta-1 adrenergic receptor (Homo sapiens, UniProt P08588); type: functional
[10] = biological target: T3, 5-hydroxytryptamine receptor 2B; type: functional, cell-based; remark: listed apart in the source
D(1A) dopamine receptor = D(1A) dopamine receptor (Homo sapiens, UniProt P21728); type: functional, cell-based
Estrogen receptor = biological target: T6, Estrogen receptor (Homo sapiens, UniProt P03372)
T6 sequence (P03372 whole entry): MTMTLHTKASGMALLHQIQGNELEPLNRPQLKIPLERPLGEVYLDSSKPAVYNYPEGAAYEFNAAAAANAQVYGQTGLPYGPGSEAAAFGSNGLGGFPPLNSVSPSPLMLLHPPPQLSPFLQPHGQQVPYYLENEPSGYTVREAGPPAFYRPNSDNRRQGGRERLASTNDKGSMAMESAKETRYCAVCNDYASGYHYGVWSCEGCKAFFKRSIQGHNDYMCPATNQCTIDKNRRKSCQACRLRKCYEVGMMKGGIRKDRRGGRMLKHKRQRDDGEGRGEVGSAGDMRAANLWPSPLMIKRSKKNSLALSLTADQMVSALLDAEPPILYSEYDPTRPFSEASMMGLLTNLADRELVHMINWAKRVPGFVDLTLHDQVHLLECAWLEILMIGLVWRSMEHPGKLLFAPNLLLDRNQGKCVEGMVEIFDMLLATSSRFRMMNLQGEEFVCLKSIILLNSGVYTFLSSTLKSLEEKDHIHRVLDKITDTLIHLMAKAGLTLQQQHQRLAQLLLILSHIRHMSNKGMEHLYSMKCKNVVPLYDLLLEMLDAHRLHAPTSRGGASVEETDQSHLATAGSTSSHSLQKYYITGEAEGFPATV

[11] = biological target: Vascular endothelial growth factor receptor 2 (Homo sapiens, UniProt P35968); type: functional
Further: assay procedure not described here.

Vasopressin V2 receptor, sequence (P30518 whole entry): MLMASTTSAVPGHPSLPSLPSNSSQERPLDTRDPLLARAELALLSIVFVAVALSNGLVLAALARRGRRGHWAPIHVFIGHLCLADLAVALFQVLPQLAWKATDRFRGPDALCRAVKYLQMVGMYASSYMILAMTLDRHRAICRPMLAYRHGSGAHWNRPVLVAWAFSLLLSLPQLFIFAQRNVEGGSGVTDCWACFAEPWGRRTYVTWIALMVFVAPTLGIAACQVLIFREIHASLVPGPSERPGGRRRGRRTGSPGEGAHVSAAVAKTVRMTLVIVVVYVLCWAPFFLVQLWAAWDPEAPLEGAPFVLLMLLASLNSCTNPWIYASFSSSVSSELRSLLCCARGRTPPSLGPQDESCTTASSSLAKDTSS
T3 sequence (P41595 whole entry): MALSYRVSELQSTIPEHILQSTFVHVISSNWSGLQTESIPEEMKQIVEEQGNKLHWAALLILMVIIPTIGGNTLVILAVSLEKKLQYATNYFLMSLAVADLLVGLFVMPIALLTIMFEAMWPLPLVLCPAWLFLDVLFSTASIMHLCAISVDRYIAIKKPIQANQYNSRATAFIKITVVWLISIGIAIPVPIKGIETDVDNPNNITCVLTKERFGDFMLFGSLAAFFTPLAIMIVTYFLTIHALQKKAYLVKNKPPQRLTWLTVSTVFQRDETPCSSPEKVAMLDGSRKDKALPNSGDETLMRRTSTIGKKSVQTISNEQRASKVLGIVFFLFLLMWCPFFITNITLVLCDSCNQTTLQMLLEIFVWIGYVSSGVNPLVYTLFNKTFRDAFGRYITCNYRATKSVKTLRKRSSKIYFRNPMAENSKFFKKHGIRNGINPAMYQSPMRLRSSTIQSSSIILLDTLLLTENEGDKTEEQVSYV
Beta-1 adrenergic receptor, sequence (P08588 whole entry): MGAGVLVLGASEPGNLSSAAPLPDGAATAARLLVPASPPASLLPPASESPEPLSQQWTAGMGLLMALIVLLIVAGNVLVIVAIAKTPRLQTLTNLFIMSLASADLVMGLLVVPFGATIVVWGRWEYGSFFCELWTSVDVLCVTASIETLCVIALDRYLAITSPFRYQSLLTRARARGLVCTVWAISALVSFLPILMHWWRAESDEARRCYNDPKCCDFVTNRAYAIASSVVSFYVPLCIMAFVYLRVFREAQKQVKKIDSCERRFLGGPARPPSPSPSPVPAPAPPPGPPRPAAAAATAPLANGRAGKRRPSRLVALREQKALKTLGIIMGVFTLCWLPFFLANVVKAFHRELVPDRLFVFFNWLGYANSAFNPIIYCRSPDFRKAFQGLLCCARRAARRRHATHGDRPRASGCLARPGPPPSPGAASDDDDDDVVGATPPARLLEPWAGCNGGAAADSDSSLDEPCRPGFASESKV
T4 sequence (P07550 whole entry): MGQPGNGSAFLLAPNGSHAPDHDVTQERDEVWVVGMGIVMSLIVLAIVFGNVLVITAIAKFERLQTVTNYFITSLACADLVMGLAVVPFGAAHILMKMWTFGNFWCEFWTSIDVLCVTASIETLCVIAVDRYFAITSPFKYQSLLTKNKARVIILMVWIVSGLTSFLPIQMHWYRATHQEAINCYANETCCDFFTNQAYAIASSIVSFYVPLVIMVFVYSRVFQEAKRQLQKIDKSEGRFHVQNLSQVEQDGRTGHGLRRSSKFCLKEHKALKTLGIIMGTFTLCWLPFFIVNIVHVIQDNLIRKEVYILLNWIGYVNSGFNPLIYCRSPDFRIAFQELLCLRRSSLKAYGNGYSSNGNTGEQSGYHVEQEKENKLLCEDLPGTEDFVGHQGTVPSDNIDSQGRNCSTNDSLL
Neuronal acetylcholine receptor subunit alpha-4, sequence (P43681 whole entry): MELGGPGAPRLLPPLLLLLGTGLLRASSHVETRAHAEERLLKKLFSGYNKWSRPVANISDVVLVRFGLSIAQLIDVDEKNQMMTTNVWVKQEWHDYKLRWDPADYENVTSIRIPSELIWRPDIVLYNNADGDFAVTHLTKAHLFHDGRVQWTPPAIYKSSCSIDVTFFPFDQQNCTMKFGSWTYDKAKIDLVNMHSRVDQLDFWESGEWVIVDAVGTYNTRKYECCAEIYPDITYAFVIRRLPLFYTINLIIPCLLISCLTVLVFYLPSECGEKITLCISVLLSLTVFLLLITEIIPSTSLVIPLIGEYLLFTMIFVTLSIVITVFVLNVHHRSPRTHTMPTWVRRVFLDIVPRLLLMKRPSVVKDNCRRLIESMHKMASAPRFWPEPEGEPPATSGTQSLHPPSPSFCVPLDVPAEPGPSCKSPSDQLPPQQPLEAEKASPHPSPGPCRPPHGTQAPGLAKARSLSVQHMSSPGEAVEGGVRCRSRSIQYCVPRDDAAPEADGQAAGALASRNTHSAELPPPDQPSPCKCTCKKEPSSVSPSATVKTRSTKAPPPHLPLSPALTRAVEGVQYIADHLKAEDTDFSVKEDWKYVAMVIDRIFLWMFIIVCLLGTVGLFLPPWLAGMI
Gamma-aminobutyric acid receptor subunit alpha-1, sequence (P62813 whole entry): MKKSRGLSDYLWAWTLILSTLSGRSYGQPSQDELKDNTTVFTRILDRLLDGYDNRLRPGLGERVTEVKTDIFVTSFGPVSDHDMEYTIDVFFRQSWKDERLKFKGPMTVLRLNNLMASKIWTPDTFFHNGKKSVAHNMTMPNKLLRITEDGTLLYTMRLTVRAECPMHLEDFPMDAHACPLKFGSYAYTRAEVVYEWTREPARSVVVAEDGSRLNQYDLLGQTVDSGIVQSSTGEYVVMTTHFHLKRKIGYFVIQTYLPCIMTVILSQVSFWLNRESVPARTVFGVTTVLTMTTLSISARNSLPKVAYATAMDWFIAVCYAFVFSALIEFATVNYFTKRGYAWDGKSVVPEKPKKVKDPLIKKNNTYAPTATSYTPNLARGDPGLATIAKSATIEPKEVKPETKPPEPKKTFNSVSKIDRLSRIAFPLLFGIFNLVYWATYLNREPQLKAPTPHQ
Motilin receptor, sequence (O43193 whole entry): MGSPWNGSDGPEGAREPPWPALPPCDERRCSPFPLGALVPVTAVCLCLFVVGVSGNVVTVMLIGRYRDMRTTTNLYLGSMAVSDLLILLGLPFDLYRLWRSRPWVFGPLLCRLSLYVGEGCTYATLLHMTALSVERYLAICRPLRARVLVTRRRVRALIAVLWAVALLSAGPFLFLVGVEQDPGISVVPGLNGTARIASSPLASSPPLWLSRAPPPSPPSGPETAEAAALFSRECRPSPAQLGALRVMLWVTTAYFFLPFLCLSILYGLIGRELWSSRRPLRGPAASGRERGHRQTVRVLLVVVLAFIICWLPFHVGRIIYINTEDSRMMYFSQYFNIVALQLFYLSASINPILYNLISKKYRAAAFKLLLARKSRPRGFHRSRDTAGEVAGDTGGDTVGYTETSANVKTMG
Melanocortin receptor 3, sequence (P41968 whole entry): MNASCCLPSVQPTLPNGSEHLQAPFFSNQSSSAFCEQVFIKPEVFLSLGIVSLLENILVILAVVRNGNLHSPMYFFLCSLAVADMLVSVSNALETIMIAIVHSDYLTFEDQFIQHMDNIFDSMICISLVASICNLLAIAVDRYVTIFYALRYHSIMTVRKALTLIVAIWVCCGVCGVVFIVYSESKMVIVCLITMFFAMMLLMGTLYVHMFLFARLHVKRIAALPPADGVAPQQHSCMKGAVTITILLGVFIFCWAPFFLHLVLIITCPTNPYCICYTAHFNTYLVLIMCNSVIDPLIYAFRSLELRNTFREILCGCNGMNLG
D(1A) dopamine receptor, sequence (P21728 whole entry): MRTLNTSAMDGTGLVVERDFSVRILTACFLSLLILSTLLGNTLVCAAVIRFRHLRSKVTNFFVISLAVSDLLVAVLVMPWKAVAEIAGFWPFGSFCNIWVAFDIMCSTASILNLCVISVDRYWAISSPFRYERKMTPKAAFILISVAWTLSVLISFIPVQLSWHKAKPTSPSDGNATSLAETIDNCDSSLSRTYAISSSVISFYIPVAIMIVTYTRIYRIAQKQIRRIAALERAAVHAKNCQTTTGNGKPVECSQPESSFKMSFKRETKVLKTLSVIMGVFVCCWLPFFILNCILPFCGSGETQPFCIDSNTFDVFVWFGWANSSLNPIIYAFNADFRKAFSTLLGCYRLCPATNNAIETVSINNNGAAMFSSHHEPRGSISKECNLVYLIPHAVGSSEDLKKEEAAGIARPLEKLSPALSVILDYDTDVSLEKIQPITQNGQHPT

O=C1CCc2cc(OCCCCc3nnnn3C3CCCCC3)ccc2N1 [CILOSTAZOL]
AC50 [1]: > 30 µM | AC50 [2]: > 30 µM | AC50 (Vasopressin V2 receptor): > 30 µM | AC50 [3]: > 30 µM | AC50 [4]: > 30 µM | AC50 [5]: > 30 µM | AC50 [6]: > 30 µM | AC50 [7]: > 30 µM | AC50 (Motilin receptor): > 30 µM | AC50 (Melanocortin receptor 3): > 30 µM | AC50 [8]: > 30 µM | AC50 [9]: > 30 µM | AC50 [10]: > 30 µM | AC50 (D(1A) dopamine receptor): > 30 µM

Nc1ccc(S(=O)(=O)Nc2nccs2)cc1 [SULFATHIAZOLE]
AC50 [1]: > 10 µM | AC50 [2]: > 10 µM | AC50 (Vasopressin V2 receptor): > 30 µM | AC50 [3]: > 10 µM | AC50 [4]: > 10 µM | AC50 [5]: > 30 µM | AC50 [6]: > 10 µM | AC50 [7]: > 10 µM | AC50 (Motilin receptor): > 10 µM | AC50 (Melanocortin receptor 3): > 30 µM | AC50 [8]: > 30 µM | AC50 [9]: > 10 µM | AC50 [10]: > 10 µM | AC50 (D(1A) dopamine receptor): > 10 µM

CC(=O)O[C@]1(C(C)=O)CC[C@H]2[C@@H]3C=C(C)C4=CC(=O)CC[C@@H]4[C@H]3CC[C@@]21C [NOMEGESTROL ACETATE]
AC50 [1]: > 30 µM | AC50 [2]: > 30 µM | AC50 [3]: > 30 µM | AC50 [5]: > 30 µM | AC50 [6]: > 30 µM | AC50 [7]: > 30 µM | AC50 (Melanocortin receptor 3): > 30 µM | AC50 [9]: > 30 µM | AC50 [10]: > 30 µM | AC50 (Estrogen receptor): > 30 µM | AC50 (D(1A) dopamine receptor): > 30 µM

O=C1C(CC[S+]([O-])c2ccccc2)C(=O)N(c2ccccc2)N1c1ccccc1 (stereo not drawn) [SULFINPYRAZONE]
AC50 [1]: > 10 µM | AC50 [2]: > 30 µM | AC50 (Vasopressin V2 receptor): > 10 µM | AC50 [3]: > 30 µM | AC50 [4]: > 10 µM | AC50 [5]: > 30 µM | AC50 [6]: > 10 µM | AC50 [7]: > 10 µM | AC50 (Motilin receptor): > 10 µM | AC50 (Melanocortin receptor 3): > 10 µM | AC50 [8]: > 10 µM | AC50 [9]: > 10 µM | AC50 [10]: > 30 µM | AC50 (D(1A) dopamine receptor): > 10 µM

C#C[C@]1(O)CC[C@H]2[C@@H]3CCC4=CC(=O)CC[C@@H]4[C@H]3C(=C)C[C@@]21CC [ETONOGESTREL]
AC50 [2]: > 30 µM | AC50 [3]: > 30 µM | AC50 [5]: > 30 µM | AC50 [7]: > 30 µM | AC50 [10]: > 30 µM | AC50 (Estrogen receptor): 5.62 µM | AC50 (D(1A) dopamine receptor): > 30 µM

C[C@H]1c2cccc(O)c2C(=O)C2=C(O)[C@]3(O)C(=O)C(C(N)=O)=C(O)[C@@H](N(C)C)[C@@H]3[C@@H](O)[C@@H]21 [DOXYCYCLINE]
AC50 [1]: > 10 µM | AC50 [2]: > 10 µM | AC50 (Vasopressin V2 receptor): > 30 µM | AC50 [3]: > 10 µM | AC50 [4]: > 10 µM | AC50 [5]: > 30 µM | AC50 [6]: > 10 µM | AC50 [7]: > 10 µM | AC50 (Motilin receptor): > 10 µM | AC50 (Melanocortin receptor 3): > 30 µM | AC50 [8]: > 30 µM | AC50 [9]: > 10 µM | AC50 [10]: > 10 µM | AC50 (D(1A) dopamine receptor): > 10 µM

Cc1onc(-c2ccccc2)c1-c1ccc(S(N)(=O)=O)cc1 [VALDECOXIB]
AC50 [1]: > 10 µM | AC50 [2]: > 10 µM | AC50 (Vasopressin V2 receptor): > 30 µM | AC50 [11]: > 30 µM | AC50 [3]: > 10 µM | AC50 [4]: 21.1 µM | AC50 [5]: > 30 µM | AC50 [6]: > 30 µM | AC50 [7]: > 10 µM | AC50 (Motilin receptor): > 30 µM | AC50 (Melanocortin receptor 3): > 30 µM | AC50 [8]: > 30 µM | AC50 [9]: 8.32 µM | AC50 [10]: > 10 µM | AC50 (D(1A) dopamine receptor): > 10 µM

COc1cc2nccc(Oc3ccc(NC(=O)C4(C(=O)Nc5ccc(F)cc5)CC4)cc3)c2cc1OC [CABOZANTINIB]
AC50 [1]: > 30 µM | AC50 [2]: > 30 µM | AC50 [3]: 5.8 µM | AC50 [5]: > 30 µM | AC50 [6]: > 30 µM | AC50 (Motilin receptor): > 30 µM | AC50 (Melanocortin receptor 3): > 30 µM | AC50 [8]: > 30 µM | AC50 [9]: > 30 µM | AC50 [10]: > 30 µM | AC50 (Estrogen receptor): > 30 µM | AC50 (D(1A) dopamine receptor): > 30 µM

CC(C)Cc1ccc(C(C)C(=O)O)cc1 (stereo not drawn) [IBUPROFEN]
AC50 [1]: > 10 µM | AC50 [2]: > 10 µM | AC50 (Vasopressin V2 receptor): > 30 µM | AC50 [11]: > 30 µM | AC50 [3]: > 10 µM | AC50 [4]: > 10 µM | AC50 [5]: > 30 µM | AC50 [6]: > 10 µM | AC50 [7]: > 10 µM | AC50 (Motilin receptor): > 10 µM | AC50 (Melanocortin receptor 3): > 30 µM | AC50 [8]: > 30 µM | AC50 [9]: > 10 µM | AC50 [10]: > 10 µM | AC50 (Estrogen receptor): > 30 µM | AC50 (D(1A) dopamine receptor): > 10 µM

OC[C@H]1O[C@@](CO)(O[C@H]2O[C@H](CO)[C@@H](O)[C@H](O)[C@H]2O)[C@@H](O)[C@@H]1O [SUCROSE]
AC50 [1]: > 30 µM | AC50 [2]: > 30 µM | AC50 (Vasopressin V2 receptor): > 30 µM | AC50 [3]: > 30 µM | AC50 [5]: > 30 µM | AC50 [6]: > 30 µM | AC50 [7]: > 30 µM | AC50 (Motilin receptor): > 30 µM | AC50 (Melanocortin receptor 3): > 30 µM | AC50 [8]: > 30 µM | AC50 [10]: > 30 µM | AC50 (Estrogen receptor): > 30 µM | AC50 (D(1A) dopamine receptor): > 30 µM

CC(C)N(CCC(C(N)=O)(c1ccccc1)c1ccccn1)C(C)C (stereo not drawn) [DISOPYRAMIDE]
AC50 [1]: > 10 µM | AC50 [2]: > 10 µM | AC50 (Vasopressin V2 receptor): > 30 µM | AC50 [3]: > 10 µM | AC50 [4]: > 30 µM | AC50 [5]: > 30 µM | AC50 [6]: > 30 µM | AC50 [7]: > 10 µM | AC50 (Motilin receptor): > 30 µM | AC50 (Melanocortin receptor 3): > 30 µM | AC50 [8]: > 30 µM | AC50 [9]: > 30 µM | AC50 [10]: > 10 µM | AC50 (D(1A) dopamine receptor): > 10 µM

C=CC[C@@H]1/C=C(\C)C[C@H](C)C[C@H](OC)[C@H]2O[C@@](O)(C(=O)C(=O)N3CCCC[C@H]3C(=O)O[C@H](/C(C)=C/[C@@H]3CC[C@@H](O)[C@H](OC)C3)[C@H](C)[C@@H](O)CC1=O)[C@H](C)C[C@@H]2OC [TACROLIMUS ANHYDROUS]
AC50 [1]: > 10 µM | AC50 [2]: > 10 µM | AC50 (Vasopressin V2 receptor): > 30 µM | AC50 [3]: 23 µM and 20 µM | AC50 [4]: > 10 µM | AC50 [5]: > 30 µM | AC50 [6]: > 30 µM | AC50 [7]: > 30 µM | AC50 (Motilin receptor): 9.44 µM and > 10 µM | AC50 (Melanocortin receptor 3): > 30 µM | AC50 [8]: > 30 µM | AC50 [9]: > 30 µM | AC50 [10]: > 30 µM | AC50 (D(1A) dopamine receptor): > 30 µM
